Measurements taken from patent US5886172A, “Carbapenem-3-carboxylic acid ester derivatives” (Lederle (Japan) Ltd., priority 1995, dated 1999).
≈ marks a conversion by molar mass, not a printed value.

Tests used:
[1] = system: E. cloacae 963; assay: Antibacterial activity, agar plate dilution method (MIC); format: cell-based; conditions: Enterobacter cloacae, 37° C., 18 hours
Procedure: (§1) Antibacterial activity was tested by using an agar plate dilution method in accordance with the standard method of the Japanese Chemotherapy Society [Chemotherapy, vol. 29, 76-79 (1981)].
(§2) Mueller-Hinton (MH) agar liquid media of the test microorganisms were cultured overnight at 37° C. and the resultant culture media were diluted with a buffered saline gelatin (BSG) solution to contain approximately 10^5 cells of the test microorganisms per milliliter. Then, about 5 microliters each of the diluted solutions were inoculated on MH agar media containing the test compound by using a microplanter.
(§3) The test microorganism strains used in this test were all standard ones. The test compound used herein was Compound (22) obtained in Preparation 6, i.e., the compound of formula (II), which is the active metabolite of the compounds of formula (I).

[2] = system: S. aureus Terajima; assay: as above; format: cell-based; conditions: Staphylococcus aureus, 37° C., 18 hours
Procedure: as §1, §2, §3

[3] = system: M. luteus ATCC 9341; assay: as above; format: cell-based; conditions: Micrococcus luteus, ATCC9341, 37° C., 18 hours
Procedure: as §1, §2, §3

[4] = system: S. marcescens IAM 1184; assay: as above; format: cell-based; conditions: Serratia marcescens, IAM1184, 37° C., 18 hours
Procedure: as §1, §2, §3

[5] = system: S. schottmuelleri 8006; assay: as above; format: cell-based; conditions: 37° C., 18 hours
Procedure: as §1, §2, §3

[6] = system: S. typhi 901; assay: as above; format: cell-based; conditions: Salmonella enterica, 18 h
Procedure: as §1, §2, §3

[7] = system: S. paratyphi 1015; assay: as above; format: cell-based; conditions: Salmonella enterica, 18 h
Procedure: as §1, §2, §3

[8] = system: S. pyogenes Cook; assay: as above; format: cell-based; conditions: Streptococcus pyogenes, 37° C., 18 hours
Procedure: as §1, §2, §3

[9] = system: K. pneumoniae PCI-602; assay: as above; format: cell-based; conditions: Klebsiella pneumoniae, PCI602, 37° C., 18 hours
Procedure: as §1, §2, §3

[10] = system: S. typhimurium 11D971; assay: as above; format: cell-based; conditions: Salmonella enterica, 37° C., 18 hours
Procedure: as §1, §2, §3

[11] = system: P. mirabilis IFO 3849; assay: as above; format: cell-based; conditions: Proteus mirabilis, IFO3849, 37° C., 18 hours
Procedure: as §1, §2, §3

[12] = system: S. aureus MS353; assay: as above; format: cell-based; conditions: Staphylococcus aureus, 37° C., 18 hours
Procedure: as §1, §2, §3

[13] = system: B. subtilis ATCC 6633; assay: as above; format: cell-based; conditions: Bacillus subtilis, ATCC6633, 37° C., 18 hours
Procedure: as §1, §2, §3

[14] = system: S. enteritidis G14; assay: as above; format: cell-based; conditions: Salmonella enterica, 37° C., 18 hours
Procedure: as §1, §2, §3

[15] = system: P. vulgaris OX-19; assay: as above; format: cell-based; conditions: Proteus vulgaris, OX19, 37° C., 18 hours
Procedure: as §1, §2, §3

[16] = system: M. morganii IFO 3848; assay: as above; format: cell-based; conditions: Morganella morganii, IFO3848, 37° C., 18 hours
Procedure: as §1, §2, §3

[17] = system: P. rettgeri IFO 3850; assay: as above; format: cell-based; conditions: Providencia rettgeri, IFO3850, 37° C., 18 hours
Procedure: as §1, §2, §3

[18] = system: E. aerogenes ATCC 13048; assay: as above; format: cell-based; conditions: Klebsiella aerogenes, ATCC13048, 37° C., 18 hours
Procedure: as §1, §2, §3

[19] = system: P. vulgaris HX-19; assay: as above; format: cell-based; conditions: Proteus vulgaris, HX19, 37° C., 18 hours
Procedure: as §1, §2, §3

[20] = system: S. aureus FDA209P JC-1; assay: as above; format: cell-based; conditions: Staphylococcus aureus, 37° C., 18 hours
Procedure: as §1, §2, §3

[21] = system: E. coli K-12 C600; assay: as above; format: cell-based; conditions: Escherichia coli, K12C600, 37° C., 18 hours
Procedure: as §1, §2, §3

[22] = system: E. coli NIHJ JC-2; assay: as above; format: cell-based; conditions: Escherichia coli, NIHJJC2, 37° C., 18 hours
Procedure: as §1, §2, §3

[23] = Stability Test (storage stability, residual activity by HPLC); format: physicochemical; conditions: for Residual activity, initial day: assumed to be 100%; for Residual activity, 1 month: 43800 min; for Residual activity, 3 months: 131400 min; for Retention of potency on storage: conclusion from Table 2; for Residual activity, 1 month / remaining at 730 h: 1 month
Procedure: Storage stability of (1-methylcyclohexane-carboxy)methyl (1R,5S,6S)-2-[(1-(1,3-thiazolin-2-yl)azetidin-3-yl)thio]-6-[(R)-1-hydroxyethyl]-1-methyl-carbapen-2-em-3-carboxylate [Compound (24)] was tested in comparison with its amorphous form and (cyclohexanecarboxy)methyl (1R,5S,6S)-2-[(1-(1,3-thiazolin-2-yl)azetidin-3-yl)thio]-6-[(R)-1-hydroxyethyl]-1-methyl-carbapen-2-em-3-carboxylate [Compound (C)], which is disclosed in European Patent Publication 632,039 A1.
Each compound in an amount of 20 mg was put in a glass bottle, and left to stand for 3 months in a constant-temperature chamber at 40° C. and at 40° C. /75% of humidity. The activity of each compound was assayed by HPLC after 1 month and 3 months, respectively. Assuming the activity at the beginning (initial day) to be 100%, the decrease in the activity is shown by percent residual activity in Table 2.

[24] = 40° C., HPLC, initial day = 100%
[25] = 40° C., 3 months, HPLC, initial day = 100%
[26] = solid storage, 40° C./75% humidity, HPLC, initial day = 100%

`C[C@@H](O)[C@H]1C(=O)N2C(C(=O)O)=C(SC3CN(C4=NCCS4)C3)[C@H](C)[C@H]12` [Compound (22), (1R,5S,6S)-2-[(1-(thiazolin-2-yl)azetidin-3-yl)thio]-6-[(R)-1-hydroxyethyl]-1-methyl-carbapen-2-em-3-carboxylic acid] gave an MIC [1] of 0.05 µg/mL (≈ 0.13 µM), an MIC [2] of at most 0.006 µg/mL and an MIC [3] of 0.2 µg/mL (≈ 0.522 µM). The MIC [4] was 0.05 µg/mL (≈ 0.13 µM), the MIC [5] was 0.025 µg/mL (≈ 0.0652 µM) and the MIC [6] was at most 0.006 µg/mL. It also gave an MIC [7] of 0.05 µg/mL (≈ 0.13 µM), an MIC [8] of at most 0.006 µg/mL and an MIC [9] of 0.013 µg/mL (≈ 0.0339 µM). The MIC [10] was 0.025 µg/mL (≈ 0.0652 µM), the MIC [11] was 0.39 µg/mL (≈ 1.02 µM) and the MIC [12] was at most 0.006 µg/mL. It also gave an MIC [13] of 0.025 µg/mL (≈ 0.0652 µM), an MIC [14] of 0.39 µg/mL (≈ 1.02 µM) and an MIC [15] of 0.1 µg/mL (≈ 0.261 µM). For the same compound, the MIC [16] was 0.39 µg/mL (≈ 1.02 µM), the MIC [17] was 0.39 µg/mL (≈ 1.02 µM) and the MIC [18] was 0.1 µg/mL (≈ 0.261 µM). It also gave an MIC [19] of 0.1 µg/mL (≈ 0.261 µM), an MIC [20] of 0.013 µg/mL (≈ 0.0339 µM) and an MIC [21] of 0.1 µg/mL (≈ 0.261 µM). The MIC [22] was 0.013 µg/mL (≈ 0.0339 µM).

For `C[C@@H](O)[C@H]1C(=O)N2C(C(=O)OCOC(=O)C3(C)CCCCC3)=C(SC3CN(C4=NCCS4)C3)[C@H](C)[C@H]12` [Compound (24) (Crystalline), (1-methylcyclohexane-carboxy)methyl (1R,5S,6S)-2-[(1-(1,3-thiazolin-2-yl)azetidin-3-yl)thio]-6-[(R)-1-hydroxyethyl]-1-methyl-carbapen-2-em-3-carboxylate], the “Residual activity, initial day” value ([23]; 40° C./75% humidity) was 100%, the “Residual activity, 1 month” value [23, 24] was 99.4% and the “Residual activity, 3 months” value [23, 25] was 99.2%. For the same compound, the “Residual activity, initial day” value ([23]; 40° C.) was 100%, the “Retention of potency on storage” value ([23]; listed as crystalline form of Compound (24)) was “retains its potency over a long period of time” and the remaining at 730 h [23, 26] was 98.9%.

In the case of `C[C@@H](O)[C@H]1C(=O)N2C(C(=O)OCOC(=O)C3CCCCC3)=C(SC3CN(C4=NCCS4)C3)[C@H](C)[C@H]12` [Compound (C) (Crystalline), (cyclohexanecarboxy)methyl (1R,5S,6S)-2-[(1-(1,3-thiazolin-2-yl)azetidin-3-yl)thio]-6-[(R)-1-hydroxyethyl]-1-methyl-carbapen-2-em-3-carboxylate, reference compound], the “Residual activity, initial day” value ([23]; 40° C./75% humidity) is reported as 100%, the “Residual activity, initial day” value ([23]; 40° C.) is reported as 100% and the remaining at 730 h [23, 26] is reported as 73.7%. For the same compound, the remaining at 730 h ([23]; solid storage, 40° C., HPLC, initial day = 100%) was 98.9% and the remaining at 2190 h ([23]; solid storage, 40° C., 3 months, HPLC, initial day = 100%) was 94.2%.

For `C[C@@H](O)[C@H]1C(=O)N2C(C(=O)OCOC(=O)C3(C)CCCCC3)=C(SC3CN(C4=NCCS4)C3)[C@H](C)[C@H]12` [Compound (24) (Amorphous), (1-methylcyclohexane-carboxy)methyl (1R,5S,6S)-2-[(1-(1,3-thiazolin-2-yl)azetidin-3-yl)thio]-6-[(R)-1-hydroxyethyl]-1-methyl-carbapen-2-em-3-carboxylate], the “Residual activity, initial day” value ([23]; 40° C./75% humidity) was 100%, the “Residual activity, 1 month” value [23, 24] was 67.5% and the “Residual activity, 3 months” value [23, 25] was 36.8%. The “Residual activity, initial day” value ([23]; 40° C.) was 100% and the “Retention of potency on storage” value ([23]; listed as amorphous form) was “rapidly loses its potency”.
